{
  "source": "paper PMC5483895",
  "about": "(Journal of Medicinal Chemistry, 2017)",
  "origin": "cited, not measured here",
  "key": {"CCR5 [1]": {"system": "CCR5", "settings": "mutation of I198 5.42 in CCR5, range over all ligands named"}, "CXCR4 [2]": {"system": "CXCR4", "settings": "CXCR4 mutant I259 6.55 A"}, "CXCR4 [3]": {"system": "CXCR4", "settings": "mutation of H203 5.42 in CXCR4, range over the ligands named"}, "CXCR4 [4]": {"system": "CXCR4", "settings": "CXCR4 virtual screening hits"}, "CXCR3 [5]": {"system": "CXCR3", "settings": "CXCR3 mutant W268 6.48 A"}, "CXCR3 [6]": {"system": "CXCR3", "settings": "CXCR3 mutant Y271 6.51 A"}, "CCR5 [7]": {"system": "CCR5"}, "CX3CR1": {"system": "CX3CR1", "settings": "mutations of Lys14, Lys18, Phe49 of the chemokine"}},
  "note": "Like-named read-outs stand apart in the source and are kept apart here.",
  "data": [
    {"molecule": "COC[C@@H](c1ccc(C(F)(F)F)cc1)N1CCN(C2(C)CCN(C(=O)c3c(C)ncnc3C)CC2)C[C@@H]1C", "note": "[compound 17, Vicriviroc]", "values": [
      {"measurement": "fold decrease in affinity and/or potency", "setting": "CCR5 [1]", "result": "3–125 fold"}
    ]},
    {"molecule": "Cc1ccc(-c2ccc3c(c2)C=C(C(=O)Nc2ccc(C[N+](C)(C)C4CCOCC4)cc2)CCC3)cc1.[Cl-]", "note": "[compound 19]", "values": [
      {"measurement": "fold decrease in affinity and/or potency", "setting": "CCR5 [1]", "result": "3–125 fold"}
    ]},
    {"molecule": "Maraviroc [compound 16]", "values": [
      {"measurement": "fold decrease in affinity and/or potency", "setting": "CCR5 [1]", "result": "3–125 fold"}
    ]},
    {"molecule": "CXCL12: endogenous chemokine ligand of CXCR4", "values": [
      {"measurement": "fold effect on potency", "setting": "CXCR4 [2]", "result": 8, "unit": "fold"}
    ]},
    {"molecule": "c1ccc(CNCc2ccc(CN3CCCNCCNCCCNCC3)cc2)nc1", "note": "[compound 2]", "values": [
      {"measurement": "fold effect on affinity/potency", "setting": "CXCR4 [3]", "result": "3–5 fold"}
    ]},
    {"molecule": "Cc1ccc(-c2nc3n(c2/C=N/N=C(N)N)CCS3)cc1", "note": "[compound 76]", "values": [
      {"measurement": "affinity", "setting": "CXCR4 [4]", "result": 225, "unit": "µM"}
    ]},
    {"molecule": "Cc1nc(CN(C)CC2CCCN(CCc3ccccc3C)C2)c[nH]1", "note": "(stereo not shown) [compound 78]", "values": [
      {"measurement": "affinity", "setting": "CXCR4 [4]", "result": 0.31, "unit": "µM"}
    ]},
    {"molecule": "CXCL11: chemokine, CXCR3 ligand", "values": [
      {"measurement": "fold decrease of potency", "setting": "CXCR3 [5]", "result": "more than 10 fold"},
      {"measurement": "fold decrease of binding", "setting": "CXCR3 [6]", "result": "more than 10 fold"}
    ]},
    {"molecule": "CCL3: CC chemokine", "values": [
      {"measurement": "fold effect on binding", "setting": "CCR5 [7]; CCR5 mutant W248 6.48 A", "result": 10, "unit": "fold"},
      {"measurement": "fold effect on binding", "setting": "CCR5 [7]; CCR5 mutant Y251 6.51 A/I", "result": 7, "unit": "fold"}
    ]},
    {"molecule": "CC#CCN1C(=O)[C@H]([C@@H](O)C2CCCCC2)NC(=O)C12CCN(Cc1c(C)nn(-c3ccccc3)c1C)CC2", "note": "[compound 23]", "values": [
      {"measurement": "fold decrease in affinity and/or potency", "setting": "CCR5 [1]", "result": "3–125 fold"}
    ]},
    {"molecule": "CX3CL1: human CX3C chemokine (protein, UniProt P78423 25-397, looked up) Fractalkine: QHHGVTKCNITCSKMTSKIPVALLIHYQQNQASCGKRAIILETRQHRLFCADPKEQWVKDAMQHLDRQAAALTRNGGTFEKQIGEVKPRTTPAAGGMDESVVLEPEATGESSSLEPTPSSQEAQRALGTSPELPTGVTGSSGTRLPPTPKAQDGGPVGTELFRVPPVSTAATWQSSAPHQPGPSLWAEAKTSEAPSTQDPSTQASTASSPAPEENAPSEGQRVWGQGQSPRPENSLEREEMGPVPAHTDAFQDWGPGSMAHVSVVPVSSEGTPSREPVASGSWTPKAEEPIHATMDPQRLGVLITPVPDAQAATRRQAVGLLAFLGLLFCLGVAMFTYQSLQGCPRKMAGEMAEGLRYIPRSCGSNSYVLVPV", "values": [
      {"measurement": "fold reduction of affinity for the receptor", "setting": "CX3CR1", "result": "more than 10 fold"}
    ]}
  ]
}
